One may read the IC50 as the concentration that inhibits the measured activity by half.

One test concerns C6. Kind of test: Cytotoxicity against rat C6 cells assessed as LDH release at 0.25 mM after 72 hrs by CytoTox96 non-radioactive assay (reference value: 5.41%). It counts as functional.
Another test concerns the target T1, Nitric oxide synthase 3 (Bos taurus, UniProt P29473).
T1 sequence (P29473 whole entry): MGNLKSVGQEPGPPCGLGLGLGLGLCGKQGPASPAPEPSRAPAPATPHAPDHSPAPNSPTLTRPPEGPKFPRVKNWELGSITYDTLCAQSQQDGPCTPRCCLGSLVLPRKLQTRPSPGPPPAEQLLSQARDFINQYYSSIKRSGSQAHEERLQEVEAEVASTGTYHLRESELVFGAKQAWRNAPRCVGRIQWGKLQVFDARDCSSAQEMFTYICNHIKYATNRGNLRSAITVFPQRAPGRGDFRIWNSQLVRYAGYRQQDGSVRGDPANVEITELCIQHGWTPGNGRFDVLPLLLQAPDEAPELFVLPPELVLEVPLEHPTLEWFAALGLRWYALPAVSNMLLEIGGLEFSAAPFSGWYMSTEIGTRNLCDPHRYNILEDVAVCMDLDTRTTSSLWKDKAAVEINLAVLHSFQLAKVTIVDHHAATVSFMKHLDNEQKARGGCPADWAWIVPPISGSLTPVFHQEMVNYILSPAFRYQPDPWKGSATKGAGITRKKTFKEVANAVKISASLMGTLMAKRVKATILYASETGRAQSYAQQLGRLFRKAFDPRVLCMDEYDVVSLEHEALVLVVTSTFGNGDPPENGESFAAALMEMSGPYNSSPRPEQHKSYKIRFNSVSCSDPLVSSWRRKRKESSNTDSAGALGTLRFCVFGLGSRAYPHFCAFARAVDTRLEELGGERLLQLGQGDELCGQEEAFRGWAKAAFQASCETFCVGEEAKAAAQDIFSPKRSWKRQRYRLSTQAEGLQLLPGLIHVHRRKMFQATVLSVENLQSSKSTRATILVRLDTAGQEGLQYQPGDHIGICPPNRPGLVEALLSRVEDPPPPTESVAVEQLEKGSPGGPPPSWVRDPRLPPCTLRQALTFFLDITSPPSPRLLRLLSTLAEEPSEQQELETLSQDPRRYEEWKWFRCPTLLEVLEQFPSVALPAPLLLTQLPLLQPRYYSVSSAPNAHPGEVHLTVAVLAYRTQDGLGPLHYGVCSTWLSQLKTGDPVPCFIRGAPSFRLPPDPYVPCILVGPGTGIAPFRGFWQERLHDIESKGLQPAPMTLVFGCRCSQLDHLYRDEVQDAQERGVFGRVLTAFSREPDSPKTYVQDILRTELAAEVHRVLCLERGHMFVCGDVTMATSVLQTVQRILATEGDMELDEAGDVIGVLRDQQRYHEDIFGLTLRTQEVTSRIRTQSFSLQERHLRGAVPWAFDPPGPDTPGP
Kind of test: Inhibition of recombinant bovine eNOS using [3H]L-arginine as substrate preincubated for 15 mins followed by NADPH addition measured after 20 mins in presence of FMN/FAD by liquid scintillation counting method.

Take `CC(=N)NCc1cccc(CNC(=O)[C@@H]2CCCN2)c1.Cl.Cl`: the Activity with C6 came to 26.54%. Also, at Nitric oxide synthase 3, the concentration for half-maximal inhibition (IC50) is 265 µM.
